For 15 molecules, TGI and GI50 results are on record in PubChem BioAssay (NCI).

Some test systems named below: A549 NSCLC; BT-549 breast; EKVX NSCLC; HCT-15 colon; HS 578T breast; MOLT-4 leukemia; SN12C renal; RPMI-8226 leukemia; SNB-75 CNS.
Common to all, as to experiment: NCI-60 cell line screen, 48 h

Where “and” joins values, the source holds several entries; their conditions need not be identical. Identical values can stand only once.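 How tested: cells in 96-well plates exposed to compound for 48 hours at five concentrations. GI50 is the concentration that inhibits growth by half. The concentration for full growth arrest is given as TGI.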 *1 amine or outer side, *2 acyl side, *3 side chain or, on linkers, in order; H or OH if unused. Where a SMILES comes first, the peptide text is derived from it. [ ]: non-standard residue; d: D form. The star is where a group is joined. X12 = NCCCCC(N[*:1])C(=O)CN1CCCC1C(=O)[*:2]; Pentadecanoyl = CCCCCCCCCCCCCCC(=O)*

For `CC(C)c1cc(C(C)C)c(B(c2ccccc2)c2ccccc2)c(C(C)C)c1Br`, the TGI in the test with A549 NSCLC, in the test on BT-549 breast, in the test on EKVX NSCLC, with HCT-15 colon, with HS 578T breast and in the test on MOLT-4 leukemia was > 100 µM throughout. In addition, in the test on SN12C renal, the TGI is > 100 µM.
For the molecule `Cc1cnc2cc(Cl)ccc2c1SCC(=O)O`, the TGI in the test with A549 NSCLC, with BT-549 breast, in the test with EKVX NSCLC, in the test on HCT-15 colon, in the test with HS 578T breast and in the test with MOLT-4 leukemia was > 100 µM in each case. Further, the TGI in the test on RPMI-8226 leukemia and with SN12C renal was > 100 µM in each case.
For `CC1CN=C(N(C(=O)Nc2ccccc2)C2CCCCC2)S1` (centres undefined), the TGI in the test on A549 NSCLC is 34.2 µM; in the test on EKVX NSCLC it was 35.4 µM; in the test on HCT-15 colon, 28.9 µM; in the test on HS 578T breast, 50 µM; in the test on MOLT-4 leukemia, 38.8 µM; in the test with RPMI-8226 leukemia, 49.7 µM. For the same molecule, the TGI in the test on SN12C renal was 31.2 µM; with SNB-75 CNS, 28.9 µM.
`S=C1NNC(=S)NN1`: the TGI in the test on A549 NSCLC is > 1 µM; in the test with BT-549 breast, > 1 µM; with EKVX NSCLC it was > 1 µM; in the test with HCT-15 colon, > 1 µM; in the test with HS 578T breast, > 1 µM; in the test on MOLT-4 leukemia, 0.898 µM. Besides, the figures for the TGI with RPMI-8226 leukemia and with SN12C renal were > 1 µM and 0.354 µM, respectively.
Consider `NS(=O)(=O)c1ccc(NS(=O)(=O)c2ccc(NC(=O)N(c3ccccc3)c3ccccc3)cc2)cc1`, for which the TGI in the test on A549 NSCLC, with BT-549 breast, in the test with EKVX NSCLC, in the test with HCT-15 colon, with HS 578T breast and with MOLT-4 leukemia was > 100 µM throughout. The TGI was 94.9 µM in the test with RPMI-8226 leukemia and > 100 µM with SN12C renal.
Consider `CCCCCCCCCCCCCCC(=O)NC(CCCCN)C(=O)CN1CCCC1C(=O)NCC(=O)NC(Cc1ccccc1)C(=O)N1CCCC1C(=O)NC(CO)C(=O)NC(Cc1ccc(O)cc1)C(=O)NC(CCCCN)C(=O)NC(CC(C)C)C(=O)NC(CCCN=C(N)N)C(=O)N1CCCC1C(=O)NCC(N)=O` (centres undefined) (Pentadecanoyl-[X12]GFPSYKLRPG-NH2; configuration not given here), for which the GI50 in the test on A549 NSCLC was 23.7 µM; in the test with BT-549 breast, 29.6 µM; in the test on EKVX NSCLC it was 25.9 µM; in the test with HS 578T breast it was 38.6 µM; with MOLT-4 leukemia, 16.3 µM; in the test on RPMI-8226 leukemia it was 14.7 µM. For the same molecule, in the test on SNB-75 CNS, the GI50 was 27.6 µM. For the same molecule, the TGI with A549 NSCLC was 47.6 µM; in the test with BT-549 breast, 59.6 µM; with EKVX NSCLC, 60.5 µM; in the test with HS 578T breast, > 100 µM; in the test on MOLT-4 leukemia, 34.6 µM; in the test with RPMI-8226 leukemia it was 30.8 µM. The molecule further returned a TGI in the test on SNB-75 CNS of 58.5 µM.
With `COc1cccc2c1C(=O)c1c(O)c3c(c(O)c1C2=O)C[C@@](O)(C(=O)CO)CC3OC1CC(NCCCCC(OC(C)=O)OC(C)=O)C(O)C(C)O1` (some centres undefined), the GI50 was 0.00368 µM in the test on EKVX NSCLC; 0.000378 µM in the test on MOLT-4 leukemia; 0.000528 µM in the test with RPMI-8226 leukemia; 0.000935 µM with SN12C renal; 0.000927 µM with SNB-75 CNS. The TGI was 0.0143 µM with EKVX NSCLC; > 1 µM in the test on HCT-15 colon; 0.00909 µM and 0.00236 µM in the test on MOLT-4 leukemia; 0.00313 µM in the test on RPMI-8226 leukemia; > 1 µM in the test with SN12C renal; 0.00432 µM and 0.00344 µM in the test with SNB-75 CNS.
Regarding `c1ccc(C2C3=C(CCCC3)Nc3nnnn32)cc1` (centres undefined), the TGI in the test with A549 NSCLC is > 100 µM; in the test with BT-549 breast, 98.4 µM; with HCT-15 colon it was > 100 µM; in the test on HS 578T breast it was > 100 µM; in the test with MOLT-4 leukemia it was > 100 µM; in the test with SN12C renal it was > 100 µM.
Regarding `N#Cc1nc(C(=O)c2ccccc2)oc1N`, the TGI with A549 NSCLC, in the test with EKVX NSCLC, in the test on HCT-15 colon, with HS 578T breast, with MOLT-4 leukemia and in the test with RPMI-8226 leukemia was > 100 µM each time. Besides, the TGI was > 100 µM with SN12C renal and 8.45 µM in the test on SNB-75 CNS.
In the case of `Cn1c(-c2cccs2)cc(-c2ccsc2)c1-c1ccsc1`, the TGI in the test on A549 NSCLC, with BT-549 breast, in the test on EKVX NSCLC, in the test on HCT-15 colon, with HS 578T breast and in the test with MOLT-4 leukemia was > 100 µM each time. Also, the TGI in the test with SN12C renal and in the test on SNB-75 CNS was > 100 µM each time.
On to `C(=N\Nc1nnc(-c2nnc(N/N=C/c3ccccc3)o2)o1)/c1ccccc1`, for which the TGI in the test with A549 NSCLC, in the test on BT-549 breast, with EKVX NSCLC, in the test with HCT-15 colon, in the test on HS 578T breast and with MOLT-4 leukemia was > 10 µM throughout. The TGI with RPMI-8226 leukemia and in the test with SN12C renal was > 10 µM each time.
On to `COc1ccc(OC)c([N+](=O)[O-])c1-c1nc2sc(C)cn2c1/C=N/N=C(N)N`, for which the TGI was > 100 µM in the test with A549 NSCLC; 41.9 µM in the test with BT-549 breast; > 100 µM in the test on EKVX NSCLC; > 100 µM in the test with HCT-15 colon; 97.9 µM in the test with HS 578T breast; > 100 µM with RPMI-8226 leukemia. In addition, in the test with SN12C renal, the TGI came out at 90.1 µM.
Regarding `Oc1cccc(-c2cn3cc(Cl)ccc3n2)c1`, the TGI in the test with A549 NSCLC was > 100 µM; with BT-549 breast, > 100 µM; in the test with EKVX NSCLC it was 83.5 µM; in the test with HCT-15 colon, > 100 µM; in the test with HS 578T breast, > 100 µM; in the test with MOLT-4 leukemia, > 100 µM. In addition, the TGI in the test on SN12C renal is > 100 µM.
Take `O=C1/C(=C/Cc2ccco2)N=C(c2ccccc2)N1c1nc2c(Cl)cc(Cl)cc2s1`: the TGI is 80.7 µM in the test with A549 NSCLC; 83.5 µM with BT-549 breast; 76.2 µM in the test on EKVX NSCLC; > 100 µM with HCT-15 colon; 57.4 µM with HS 578T breast; 33.3 µM in the test on MOLT-4 leukemia. Moreover, the TGI in the test with RPMI-8226 leukemia was 35.4 µM; with SN12C renal it was > 100 µM.
Consider `C/C(=N\Nc1nc2ccccc2n1C)c1ccncn1`, for which the TGI was > 32 µM with A549 NSCLC; > 100 µM in the test on BT-549 breast; > 47.7 µM in the test on EKVX NSCLC; > 88.1 µM with HCT-15 colon; > 100 µM in the test with HS 578T breast; > 100 µM in the test with MOLT-4 leukemia. For the same molecule, the figures for the TGI with SN12C renal and with SNB-75 CNS were > 100 µM and > 70.9 µM, respectively.
